# According to publication PMC10698194 (Nature Communications, 2023):
# Where “and” joins values, the source holds several entries; their conditions need not be identical. Identical values can stand only once.
# Legend:
# mouse KOR, Gαz = mouse KOR, Gαz (Mus musculus, UniProt P33534); assay: TRUPATH BRET G protein assay, Gαz; format: cell-based
# mouse KOR, Gαi2 = target: T1, mouse KOR, Gαi2 (Mus musculus, UniProt P33534); assay: TRUPATH BRET G protein assay, Gαi2; format: cell-based
# T1 construct: expressed in transfected cells; host or cells: HEK293T (ATCC, CRL-3216), transient
# mouse KOR, Gαi1 = mouse KOR, Gαi1 (Mus musculus, UniProt P33534); assay: TRUPATH BRET G protein assay, Gαi1; format: cell-based; conditions: TRUPATH; read-out: Emax (%) Gαi1
# human KOR = human KOR (Homo sapiens, UniProt P41145); assay: cell-based; parameters: expressed in transfected cells; host or cells: HEK293, transient
# mouse KOR, Gαi3 = mouse KOR, Gαi3 (Mus musculus, UniProt P33534); assay: TRUPATH BRET G protein assay, Gαi3; format: cell-based; conditions: TRUPATH; read-out: Emax (%) Gαi3
# mouse KOR, Gαgustducin = mouse KOR, Gαgustducin (Mus musculus, UniProt P33534); assay: TRUPATH BRET G protein assay, Gαgustducin; format: cell-based; conditions: read-out: Emax (%) Gαgustducin
# mouse KOR, GαoA = mouse KOR, GαoA (Mus musculus, UniProt P33534); assay: TRUPATH BRET G protein assay, GαoA; format: cell-based; conditions: TRUPATH; read-out: Emax (%) GαoA
# mouse KOR, GαoB = mouse KOR, GαoB (Mus musculus, UniProt P33534); assay: TRUPATH BRET G protein assay, GαoB; format: cell-based; conditions: TRUPATH; read-out: Emax (%) GαoB
# Sequence of mouse KOR, GαoB (P33534 whole entry): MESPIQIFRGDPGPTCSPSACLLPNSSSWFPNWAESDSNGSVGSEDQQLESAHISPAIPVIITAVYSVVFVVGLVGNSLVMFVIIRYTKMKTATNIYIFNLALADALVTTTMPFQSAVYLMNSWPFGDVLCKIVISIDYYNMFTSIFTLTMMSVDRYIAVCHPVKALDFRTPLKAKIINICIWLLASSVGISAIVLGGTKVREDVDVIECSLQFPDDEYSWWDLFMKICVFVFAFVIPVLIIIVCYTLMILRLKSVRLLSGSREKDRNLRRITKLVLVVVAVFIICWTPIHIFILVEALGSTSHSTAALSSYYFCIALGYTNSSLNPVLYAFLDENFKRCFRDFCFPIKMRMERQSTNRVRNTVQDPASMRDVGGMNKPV
# Sequence of mouse KOR, GαoB (P09471 2-354 partner): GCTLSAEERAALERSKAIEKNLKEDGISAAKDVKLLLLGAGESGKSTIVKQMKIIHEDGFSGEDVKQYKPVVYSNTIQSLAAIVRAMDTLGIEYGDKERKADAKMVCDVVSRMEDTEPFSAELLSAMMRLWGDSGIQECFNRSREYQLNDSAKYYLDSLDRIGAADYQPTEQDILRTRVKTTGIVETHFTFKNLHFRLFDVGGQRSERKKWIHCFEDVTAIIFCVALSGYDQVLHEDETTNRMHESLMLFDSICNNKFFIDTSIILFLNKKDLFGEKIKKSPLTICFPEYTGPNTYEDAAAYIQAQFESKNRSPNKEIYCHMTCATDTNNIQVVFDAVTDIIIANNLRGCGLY
# T1 sequence (P33534 whole entry): as the sequence (P33534 whole entry) above
# Sequence of human KOR (P41145 whole entry): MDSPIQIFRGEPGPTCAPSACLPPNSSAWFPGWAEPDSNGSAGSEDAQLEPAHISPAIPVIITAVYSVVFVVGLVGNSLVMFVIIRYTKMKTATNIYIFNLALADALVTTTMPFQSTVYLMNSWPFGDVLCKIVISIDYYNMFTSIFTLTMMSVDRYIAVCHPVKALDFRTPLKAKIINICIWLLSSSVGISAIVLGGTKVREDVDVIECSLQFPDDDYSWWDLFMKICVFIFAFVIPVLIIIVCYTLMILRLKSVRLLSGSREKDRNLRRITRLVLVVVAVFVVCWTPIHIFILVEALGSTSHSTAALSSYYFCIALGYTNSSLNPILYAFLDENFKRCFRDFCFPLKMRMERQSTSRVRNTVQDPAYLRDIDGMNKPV
# Sequence of mouse KOR, Gαz (P33534 whole entry): as the sequence (P33534 whole entry) above
# Sequence of mouse KOR, Gαz (P19086 2-355 partner): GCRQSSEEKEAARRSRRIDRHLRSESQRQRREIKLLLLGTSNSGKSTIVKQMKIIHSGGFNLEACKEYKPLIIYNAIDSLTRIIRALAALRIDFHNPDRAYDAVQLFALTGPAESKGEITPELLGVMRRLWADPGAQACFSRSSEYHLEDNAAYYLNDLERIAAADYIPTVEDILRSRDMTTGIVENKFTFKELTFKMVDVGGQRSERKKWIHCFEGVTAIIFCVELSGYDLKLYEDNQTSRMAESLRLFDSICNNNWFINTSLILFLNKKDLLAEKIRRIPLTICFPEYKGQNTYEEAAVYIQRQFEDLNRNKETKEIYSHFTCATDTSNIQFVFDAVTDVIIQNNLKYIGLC
# Sequence of mouse KOR, Gαi1 (P33534 whole entry): as the sequence (P33534 whole entry) above
# Sequence of mouse KOR, Gαi1 (P63096 2-354 partner): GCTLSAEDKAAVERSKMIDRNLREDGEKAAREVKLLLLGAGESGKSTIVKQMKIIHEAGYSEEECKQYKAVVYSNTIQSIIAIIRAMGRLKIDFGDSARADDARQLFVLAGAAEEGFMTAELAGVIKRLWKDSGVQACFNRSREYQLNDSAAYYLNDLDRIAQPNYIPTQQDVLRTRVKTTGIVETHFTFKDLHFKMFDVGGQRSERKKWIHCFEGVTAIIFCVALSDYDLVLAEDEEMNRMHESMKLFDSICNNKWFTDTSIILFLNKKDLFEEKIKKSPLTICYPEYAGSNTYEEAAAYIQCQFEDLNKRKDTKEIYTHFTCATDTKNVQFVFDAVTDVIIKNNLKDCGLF
# Sequence of mouse KOR, Gαi3 (P33534 whole entry): as the sequence (P33534 whole entry) above
# Sequence of mouse KOR, Gαi3 (P08754 2-354 partner): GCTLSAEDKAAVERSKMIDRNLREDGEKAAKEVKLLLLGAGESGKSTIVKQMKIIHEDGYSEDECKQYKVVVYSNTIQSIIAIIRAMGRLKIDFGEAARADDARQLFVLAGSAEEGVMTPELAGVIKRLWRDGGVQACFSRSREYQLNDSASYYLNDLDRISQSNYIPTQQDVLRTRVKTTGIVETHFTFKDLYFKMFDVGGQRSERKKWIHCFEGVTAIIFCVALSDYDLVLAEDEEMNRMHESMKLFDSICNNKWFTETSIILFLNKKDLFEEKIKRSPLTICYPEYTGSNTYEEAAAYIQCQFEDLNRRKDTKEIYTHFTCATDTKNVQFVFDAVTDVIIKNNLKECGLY
# Sequence of mouse KOR, GαoA (P33534 whole entry): as the sequence (P33534 whole entry) above
# Sequence of mouse KOR, GαoA (P09471 2-354 partner): as the sequence (P09471 2-354 partner) above
# Sequence of mouse KOR, Gαgustducin (P33534 whole entry): as the sequence (P33534 whole entry) above
# Sequence of mouse KOR, Gαgustducin (A8MTJ3 2-354 partner): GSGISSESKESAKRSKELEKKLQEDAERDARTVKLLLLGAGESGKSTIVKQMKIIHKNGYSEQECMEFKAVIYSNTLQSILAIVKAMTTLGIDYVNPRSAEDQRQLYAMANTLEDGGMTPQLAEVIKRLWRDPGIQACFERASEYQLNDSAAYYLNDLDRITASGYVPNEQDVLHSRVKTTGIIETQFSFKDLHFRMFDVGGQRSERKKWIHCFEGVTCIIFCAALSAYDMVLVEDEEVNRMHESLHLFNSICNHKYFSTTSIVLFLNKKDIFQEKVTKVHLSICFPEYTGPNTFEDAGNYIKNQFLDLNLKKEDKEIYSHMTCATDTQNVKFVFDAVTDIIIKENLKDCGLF
structure (smiles),measurement,setting,value
O=C(NC1C=CC2C3Cc4ccc(O)c5c4C2(CCN3CC2CC2)C1O5)c1cccc(I)c1 (stereo not drawn) [MP1104],highest potency,"mouse KOR, Gαz; Gαz subtype",picomolar range
same,Emax,"mouse KOR, Gαz; TRUPATH",101 ± 3%
same,potency (log EC50) Gαi2,"mouse KOR, Gαi2; Fig. 3i spider plot",-9.607
same,"Gαi2, normalized response (single replicate values)","mouse KOR, Gαi2; Log [ligand] (M) -5",68.8651 and 55.859 and 33.3938 and 78.3335 and 54.4028 and 51.6416 and 70.9702 and 67.6827
same,"Gαi2, normalized response (single replicate values)","mouse KOR, Gαi2; Log [ligand] (M) -6",66.5004 and 68.8651 and 52.3118 and 47.96 and 45.1988 and 59.9253 and 82.9355 and 80.6889
same,"Gαi2, normalized response (single replicate values)","mouse KOR, Gαi2; Log [ligand] (M) -7",70.0475 and 61.7708 and 39.3057 and 73.7314 and 51.6416 and 42.4375 and 78.3335 and 51.1294
same,"Gαi2, normalized response (single replicate values)","mouse KOR, Gαi2; Log [ligand] (M) -8",83.0537 and 70.0475 and 49.9471 and 81.0947 and 82.9355 and 89.3784 and 101.344 and 61.7708
same,"Gαi2, normalized response (single replicate values)","mouse KOR, Gαi2; Log [ligand] (M) -9",49.9471 and 40.488 and 71.2299 and 59.0049 and 80.1743 and 78.3335 and 46.1192 and 33.3938
same,"Gαi2, normalized response (single replicate values)","mouse KOR, Gαi2; Log [ligand] (M) -10",20.3876 and 60.5885 and 12.111 and 42.4375 and 46.1192 and 22.1885 and 25.8702 and 19.2052
same,"Gαi2, normalized response (single replicate values)","mouse KOR, Gαi2; Log [ligand] (M) -11",-28.0899 and -9.172 and -25.7252 and 25.8702 and -9.105 and 27.711 and -46.8421 and 9.7462
same,"Gαi2, normalized response (single replicate values)","mouse KOR, Gαi2; Log [ligand] (M) -12",21.57 and -2.078 and 28.6643 and 3.78 and 2.86 and 9.303 (2×) and 6.199
same,Emax,"mouse KOR, Gαi2; TRUPATH",65 ± 6%
same,Gαi2 (Figure 3j),"mouse KOR, Gαi2; source data of Figure 3j, U50,488 about 100",64.9839
same,Emax,"mouse KOR, Gαi1",100 ± 4%
same,potency (log EC50) β-arrestin-2,human KOR,-8.493
same,β-arrestin-2 (Figure 3j),human KOR,91
same,Emax,"human KOR; HEK293, read-out: Emax β-arrestin-1 recruitment",91 ± 8%
same,Emax,"mouse KOR, Gαi3",85 ± 3%
same,Emax,"mouse KOR, Gαgustducin",95 ± 5%
same,Emax,"mouse KOR, GαoA",87 ± 7%
same,Emax,"mouse KOR, GαoB",101 ± 8%
